Here are results for 1 compound from patent US9578878B2, “Antimicrobial efficacy of an oregano oil and caprylic acid blend” (Kemin Industries, Inc., priority 2014, dated 2017).

One assay has as its system C. albicans. The experiment in a line: Zone of inhibition assay. Type of assay: cell-based, Candida albicans. Particulars: 20 μL per 6 mm disk, 72 hrs, n = 3. As to the method:
(§1) For assays to find minimum inhibitory concentrations, all treatments were diluted in 10% DMSO and 0.5% Tween 80 to stabilize the samples.
(§2) Microorganisms Escherichia coli (ATCC #8739), Streptococcus sanguinis (ATCC #BAA-1455), Salmonella enteria subsp. enterica (ex Kauffmann and Edwards) Le Minor and Popoff serovar Typhimurium (ATCC #14028), Staphylococcus aureus (ATCC #6538), Pseudomonas aeruginosa (ATCC #9027), and Candida albicans (ATCC #10231) were obtained from a −80° C. internal stock culture. Aspergillus brasiliensis (ATCC #16404) was obtained from an internal stock solution culture stored at 4° C. E. coli, S. enterica S. aureus, and P. aeruginosa were grown in tryptic soy broth (TSB) and incubated at 37° C. for 24 h. S. sanguinis was grown in brain heart infusion broth (BHI). A. brasiliensis was plated on Sabourand dextrose agar (SDA) and incubated at 25° C. for 5-7 days. C. albicans was grown in Sabourand dextrose broth (SDB) and incubated at 25° C. for 48 h.
(§3) A. brasiliensis was harvested by adding 18 mL sterile saline to the plate and agitating the mold from the agar with a sterile inoculating loop. The inoculum was collected upon agitation. All suspended microbes were diluted with the same type of broth media used to grow each organism until an inoculum in the range of 10^6 CFU/mL was achieved. The inoculum concentration was determined by plate count method. Each strain was identified by plating on the appropriate growth media, E. coli, S. aureus, and P. aeruginosa on tryptic soy agar (Bacto, BD Sciences, Manassas, Va.) and C. albicans and A. brasiliensis on Sabrouand dextrose agar, to ensure there was no contamination of the inoculum.
(§4) A zone of inhibition assay was used for A. brasiliensis and C. albicans. SDA was used as the plated medium. Inocula at 10^5 cfu/ml were prepared and counted using a Petroff-Hausser counting chamber. The diameter of no growth around a 6 mm blank disk after incubation at 25° C. for 72 hrs was compared to the untreated control. 20 μL of treatment was applied to each disk in triplicate. 10% DMSO was used as the control.

The test system of a further assay is A. brasiliensis. As to the kind of experiment: Zone of inhibition assay. Type of assay: cell-based, Aspergillus brasiliensis. As to conditions: 20 μL per 6 mm disk, 72 hrs, n = 3. The method, then:
as §1, §2, §3, §4

The subject of assay [1] is Aspergillus brasiliensis (ATCC #16404). As to the kind of experiment: Preservative efficacy test (USP 51) in cold process cream, Example 1. Particulars: cream with caprylic acid, by the end of the study (28 days). The class given is cell-based. As to the method: (§5) Creams were prepared aseptically by spraying 70% isopropyl alcohol on all surfaces and labware. Carbomer 940 and coco caprylate were obtained from BPI Labs, Inc. (Evanston, Wyo.). Safflower and olive oils were purchased from Jedwards International, Inc. (Quincy, Mass.). The cream formulations were as follows: […]
(§6) Preservative studies were completed at different times for caprylic acid and 10% carvacrol in caprylic acid. The negative and positive controls were designated at A, B for the caprylic acid study and 1, 2 for the addition of carvacrol in Table 1. The change in positive control ingredients was due to a shift in the preservative used for regular KPC formulations.
(§7) DI water was added to a pre-weighed 250 mL beaker and mixed at 800 rpm using an overhead mixer (Eurostar power-b IKA-WERKE, Wilmington, N.C.) with a 3 blade […] impeller. Carbomer 940 was slowly added to the center of the mixing water. The mixture was hydrated for 30 minutes while covered with aluminum foil. Glycerin quickly followed by Lysofix were slowly added to the solution. After 2 minutes, safflower oil, olive oil, and coco caprylate were slowly added to the mixture at 1000 rpm. The solution was mixed for 30 minutes while covered with aluminum foil. Next the pH was measured and adjusted to 5.5 with a 33.3% sodium hydroxide solution. The mixing speed was increased to 1400 rpm. From time to time, it was necessary to scrape the sides of the beaker with a spatula to ensure that the cream became homogenized. When the cream appeared homogenized, the amount of preservative or treatment was added. After 2 minutes, the cream was weighed and water added to reach a mass balance.
(§8) Microorganisms Escherichia coli (ATCC #8739), Staphylococcus aureus (ATCC #6538), Pseudomonas aeruginosa (ATCC #9027), and Candida albicans (ATCC #10231) were obtained from a −80° C. internal stock culture. Aspergillus brasiliensis (ATCC #16404) was obtained from an internal stock solution cultured stored at 4° C. E. coli, S. aureus, and P. aeruginosa were grown in tryptic soy broth (Bacto, BD Sciences, Manassas, Va.) and incubated at 37° C. for 24 h. A. brasiliensis was plated on Sabourand dextrose agar (Bacto, BD Sciences, Manassas, Va.) and incubated at 25° C. for 5-7 days. C. albicans was grown in Sabourand dextrose broth (Bacto, BD Sciences, Manassas, Va.) and incubated at 25° C. for 48 h.
(§9) Pathogens in broth were harvested by centrifugation (2400 rpm, 20 minutes) and suspended in sterile saline. A. brasiliensis was harvested by adding 18 mL sterile saline to the plate and agitating the mold from the agar with a sterile inoculating loop. The inoculum was collected upon agitation. All suspended microbes were diluted with sterile saline until an inoculum in the range of 10^8 CFU/mL was achieved. The inoculum concentration was determined by plate count method. Each strain was identified by plating on the appropriate growth media, E. coli, S. aureus, and P. aeruginosa on tryptic soy agar (Bacto, BD Sciences, Manassas, Va.) and C. albicans and A. brasiliensis on Sabrouand dextrose agar, to ensure there was no contamination of the inoculum.
(§10) Creams were plated according to the SOP^1 to ensure they were sterile. Each prepared cream was inoculated with 0.1 mL of inoculum per 10 g of sample to reach the targeted inoculated concentration of 6-log cfu/g. Samples were vortexed for 2 minutes. The inoculated creams were incubated at 25° C. […]

The test system of assay [2] is Candida albicans (ATCC #10231). The assay is described as above. The class given is cell-based. As to conditions: cream with 0.5% or 1.0% caprylic acid, after 2 days. As to the method: as §5, §6, §7, §8, §9, §10
Assay [3] has as its system Escherichia coli (ATCC #8739). Described as above. Particulars: cream with 0.5% or 1.0% caprylic acid, after 3 days. The class given is cell-based. As to the method:
as §5, §6, §7, §8, §9, §10

Assay [4] concerns Pseudomonas aeruginosa (ATCC #9027). Described as above. Type of assay: cell-based. Particulars: cream with 0.5% or 1.0% caprylic acid, after 2 days. The method, then:
as §5, §6, §7, §8, §9, §10

For assay [5], the system named is Staphylococcus aureus (ATCC #6538). The description is as above. The class given is cell-based. Particulars: cream with 0.5% or 1.0% caprylic acid, after 2 days. As to the method: as §5, §6, §7, §8, §9, §10

As to `CCCCCCCC(=O)O` [Caprylic Acid, octanoic acid], the “Inhibition Diameter, C. albicans” value in the assay with C. albicans (0.45% treatment) is 3.5 mm; in the assay on C. albicans (0.9% treatment), 4.5 mm; in the assay on C. albicans (2.7% treatment), 24.5 mm. The “Inhibition Diameter, A. brasiliensis” value in the assay on A. brasiliensis (0.9% treatment), in the assay with A. brasiliensis (2.7% treatment) and in the assay with A. brasiliensis (4.5% treatment) was 0 mm throughout. Moreover, the “Log reduction of A. brasiliensis” value in assay [1] came out at 2 log. Further, the “Log reduction of C. albicans” value in assay [2] was determined as 5 log. Moreover, the “Log reduction of E. coli” value in assay [3] was 5 log. Besides, in assay [4], the “Log reduction of P. aeruginosa” value is given as 5 log. Besides, the “Log reduction of S. aureus” value in assay [5] turned out to be 5 log.
